Like-named read-outs stand apart in the source and are kept apart here.
What was measured:
sodium channel site 2 = conditions: screening profile; cited from earlier work
[1] = Pharmacokinetics of metabolite AV19-144 in plasma after oral AV2-73 (LC-MS/MS); assay type: in vivo; conditions: for MRT: read-out: mean residence time of AV19-144
Method: After separation from human plasma analytes were injected into a LC-MS/MS. […] A weighted (1/x) regression 2nd order was performed to determine the concentration of the analytes. The study was conducted in accordance with the Principles of Good Laboratory Practice (GLP) as described under § 19, German Chemical Law. The validation based on the EG-Dok.

seizures = assay: Seizure prophylaxis in single subjects (Examples 1-6); assay type: in vivo, human
Method: A person is experiencing 4 to 7 seizures per day with a baseline of 6.6 seizures per day. A19-144 is administered daily at 2.0 mg for 5 days.
The subject is administered low dose donepezil (4 mg daily) for 5 days cotimely with continued A19-144 administration daily at 2.0 mg for 5 days.
A person is experiencing 6 to 8 seizures per day with a baseline of 6.6 seizures per day. A19-144 is administered daily at 2.0 mg for 5 days.
The subject is administered low dose Eslicarbazepine acetate at 600 mg/day; for 5 days cotimely with continued A19-144 administration daily at 2.0 mg for 5 days.
A person is experiencing seizures 3.2 per day. The subject is administered lacosamide at 60 mg two times per day for 5 days and cotimely administration of A19-144 daily at 2.0 mg for 5 days.
The person is experiencing an average of 3.3 seizures per day. The subject is administered Levetiracetam at 400 mg two times per day for 5 days and cotimely administration of 3.0 mg of A19-144 daily for 5 days.

σ1 = σ1 (Homo sapiens, UniProt Q99720); conditions: as compared with σ1 sites (so in the source); cited from earlier work
Aβ25-35-induced toxicity [2] = conditions: cited from earlier work
NMDA receptors = conditions: screening profile; cited from earlier work
[3] = target: muscarinic M1-M4 receptors; conditions: screening profile; cited from earlier work
Aβ25-35-induced toxicity [4] = assay: Aβ25-35 model, pre- and post-peptide administration schedules (Y maze, passive avoidance, hippocampal lipid peroxidation); assay type: in vivo, mice; conditions: for anti-amnesic and neuroprotective effect against amyloid toxicity: drug administered before or after the amyloid peptide challenge
σ2 sites = σ2 sites (Homo sapiens, UniProt Q5BJF2); conditions: reported binding analyses; cited from earlier work
[5] = system: muscarinic acetylcholine receptors; conditions: believed to bind; cited from earlier work
sigma-1 receptors = sigma-1 receptors (Homo sapiens, UniProt Q99720); conditions: believed to bind; cited from earlier work
[6] = 0.3 mg/kg ip once a day, day 7 to day 13 after Aβ25-35, measured 14 days after Aβ25-35
[7] = 0.1 or 0.3 mg/kg ip once a day, day -7 to day -1 before Aβ25-35, 7 days after Aβ25-35

Chain of σ1 (Q99720 whole entry): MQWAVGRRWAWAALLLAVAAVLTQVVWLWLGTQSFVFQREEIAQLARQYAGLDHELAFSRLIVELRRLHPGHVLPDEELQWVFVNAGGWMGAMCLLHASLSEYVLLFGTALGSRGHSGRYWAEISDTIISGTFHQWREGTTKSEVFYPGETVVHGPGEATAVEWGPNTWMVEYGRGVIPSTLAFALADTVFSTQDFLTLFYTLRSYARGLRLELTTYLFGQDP
Chain of sigma-1 receptors (Q99720 whole entry): as above
Chain of σ2 sites (Q5BJF2 whole entry): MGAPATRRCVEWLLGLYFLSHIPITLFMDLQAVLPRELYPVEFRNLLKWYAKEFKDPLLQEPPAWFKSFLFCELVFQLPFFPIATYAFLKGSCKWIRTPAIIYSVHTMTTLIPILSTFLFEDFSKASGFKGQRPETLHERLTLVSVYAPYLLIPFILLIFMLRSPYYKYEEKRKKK

CN(C)CC1CCOC1(c1ccccc1)c1ccccc1.Cl (centres unmarked) [A2-73, 1-(2,2-diphenyltetrahydrofuran-3-yl)-N,N-dimethylmethanamine hydrochloride]
IC50 (sodium channel site 2): 5.1 µM
biotransformation of AV2-73 to main metabolite AV19-144 ([1]; after oral administration): rapid and extensive biotransformation
results of Examples 1 through 6 (seizure prophylaxis) (seizures; A2-73 substituted for A19-144): similarly effective
selectivity for the σ1 subtype (σ1): better selectivity for the σ1 subtype
Aβ25-35-induced endogenous Aβ1-42 seeding (Aβ25-35-induced toxicity [2]; reported): decreasing
IC50 (NMDA receptors): 8 µM
IC50 [3]: 3.3 to 5.2 µM
anti-amnesic and neuroprotective effect against amyloid toxicity (Aβ25-35-induced toxicity [4]): effective in pre- and post-protection
affinity for σ2 sites (σ2 sites): no affinity

CNCC1CCOC1(c1ccccc1)c1ccccc1.Cl (centres unmarked) [A19-144, 1-(2,2-diphenyltetrahydrofuran-3-yl)-N-methylmethanamine hydrochloride]
Cmax ([1]; human, oral, across the 10 to 60 mg AV2-73 dose steps, plasma, FIG. 1): 1.31 to 22.3 ng/mL
half-life ([1]; human, oral, across the 10 to 60 mg AV2-73 dose steps, plasma, FIG. 1, read-out: mean terminal elimination half-life t1/2 of AV19-144): 8.56 to 28.7 h
MRT ([1]; human, plasma, oral, after 10 mg AV2-73, FIG. 2): 14.3 h
MRT ([1]; human, plasma, oral, after 60 mg AV2-73, FIG. 2): 42.7 h
seizures per day (seizures; Example 1: person, baseline 6.6 per day, 2.0 mg daily for 5 days, for 8 weeks post dosing): 2.2 per day
seizures per day (seizures; Example 3: person, baseline 6.6 per day, 2.0 mg daily for 5 days, for 8 weeks post dosing): 1.2 per day
seizures per day (seizures; person of Example 1, at 6 months post dosing): 2.2 per day
seizures per day (average) (seizures; person of Example 3, at 6 months post dosing): 1.2 per day
Aβ25-35-induced P-Akt decrease and P-GSK-3β increase (Aβ25-35-induced toxicity [2]; Lahmy et al. 2013): blocked
hyperphosphorylation of Tau on physiological (AT-8) and pathological (AT-100) epitopes (Aβ25-35-induced toxicity [2]; in the dose-range tested): attenuated
oxidative stress, caspases induction, cellular loss and learning and memory deficits (Aβ25-35-induced toxicity [2]; mice one week after injection of oligomeric Aβ25-35 (Villard et al. 2011)): attenuating
neuroprotection against amyloid toxicity (Aβ25-35-induced toxicity [2]; mice, reported): neuroprotective potential
affinity for muscarinic acetylcholine receptors [5]: low micromolar range
affinity for sigma-1 receptors (sigma-1 receptors): low micromolar range
lipid peroxidation increase (Aβ25-35-induced toxicity [4]; [6]): effective
memory deficits (Aβ25-35-induced toxicity [4]; [6]): effective
Aβ25-35-induced lipid peroxidation in the hippocampus (Aβ25-35-induced toxicity [4]; [7]): blocks
Aβ25-35-induced memory deficits (spontaneous alternation in the Y maze and passive avoidance response) (Aβ25-35-induced toxicity [4]; [7]): blocks
anti-amnesic and neuroprotective effect against amyloid toxicity (Aβ25-35-induced toxicity [4]): effective in pre- and post-protection
Aβ25-35-induced toxicity and learning impairments (Aβ25-35-induced toxicity [4]; injected repeatedly one week after the peptide): able to reverse

— patent US12594256B2, “A19-144, A2-73 and certain anticholinesterase inhibitor compositions and method for anti-seizure therapy” (priority 2014, dated 2026)
